{"source": "patent US4774248A", "about": "“Methods of treating depression and depressive states using 5-phenyl-1,4,5,6-tetrahydropyrimidine derivatives” (priority 1985, dated 1988)", "key": {"[1]": {"tested_on": "depressions and depressive states", "experiment": "Clinical trials in depression and depressive states", "type": "in vivo, human", "settings": "daily oral administration to adults", "protocol": "The clinical trials which have been undertaken have made it possible to determine that the daily dose to be administered orally to adults, in the treatment of depressions and depressive states, is generally between 3 and 120 mg for the products of the formulae Ia and Ib according to the invention."}, "[2]": {"tested_on": "mice", "experiment": "Asphyxiant anoxia caused by gallamine triiodoethylate", "type": "in vivo", "settings": "i.p., gallamine triiodoethylate 32 mg/kg", "protocol": "(§1) The results of toxicological and neuropsychopharmacological tests which were carried out with the products according to the invention have been summarized below. In these tests, solutions of the said products in distilled water were administered intraperitoneally in a volume of 20 ml/kg to male mice and in a volume of 5 ml/kg to male rats.\nGroups of 10 mice receive CRL 41 378 30 minutes before the intraperitoneal administration of 32 mg/kg of gallamine triiodoethylate (reference curarizing agent)."}, "[3]": {"tested_on": "mice", "experiment": "Motility reduced by habituation to the enclosure", "type": "in vivo", "settings": "i.p.", "method_in_brief": "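Male mice, habituated 18 h in actimeters (6 per dose, 12 controls), received CRL 41 378 intraperitoneally in distilled water at 20 ml/kg. Motility was recorded for 30 min, starting 30 min post-dose.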"}, "[4]": {"tested_on": "mice", "experiment": "Spontaneous motility (actimeter)", "type": "in vivo", "settings": "i.p.", "method_in_brief": "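Male mice (6 per dose, 12 controls) received CRL 41 378 in distilled water i.p. at 20 ml/kg; 0.5 h later they were placed in an actimeter and motility was recorded for 30 minutes.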"}, "[5]": {"tested_on": "rats", "experiment": "Overall behavior and reactivities in rats", "type": "in vivo", "settings": "i.p.", "method_in_brief": "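Male mice (20 ml/kg) and male rats (5 ml/kg) dosed intraperitoneally with compound in distilled water.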"}, "[6]": {"tested_on": "trembling and head twitches induced by 5-hydroxytryptophan (5-HTP)", "experiment": "Interaction with 5-hydroxytryptophan in association with an MAOI (nialamide)", "type": "in vivo, male mice", "method_in_brief": "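Male mice (groups of 10) got nialamide 20 mg/kg intragastric at T-18 h, test product i.p. in water at T-0.5 h, then (±)-5-HTP 20 mg/kg i.p. at T. Generalized trembling, partial trembling and head twitches scored yes/no over 2 h.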"}, "[7]": {"tested_on": "anesthetized dogs", "experiment": "Cardiovascular study in anesthetized dogs", "type": "in vivo"}, "[8]": {"tested_on": "hypothermia and ptosis induced by reserpine", "experiment": "Interaction with reserpine", "type": "in vivo", "settings": "mice, i.p.; reserpine 2.5 mg/kg; hydrochloride", "method_in_brief": "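Reserpine 2.5 mg/kg i.p. given to male mice in groups of 12; test compound dissolved in distilled water and given i.p. (20 ml/kg) four hours later.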"}, "[9]": {"tested_on": "mice", "experiment": "Intergroup aggressiveness", "type": "in vivo", "settings": "mice, i.p.", "method_in_brief": "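Male mice housed 3 weeks per group in cage halves split by an opaque partition; groups of 3 given CRL 41 378 i.p. in distilled water.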"}, "[10]": {"tested_on": "central nervous system (CNS)", "experiment": "Neuropsychopharmacological profile (conclusions of the tests)", "type": "in vivo, mice and rats", "settings": "i.p.", "protocol": "as §1"}, "[11]": {"tested_on": "hypothermia, righting behavior and stereotypies induced by apomorphine", "experiment": "Interaction with apomorphine in mice", "type": "in vivo", "method_in_brief": "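Male mice, groups of 6, given test compound intraperitoneally in distilled water (20 ml/kg) 30 min before subcutaneous apomorphine at 1 or 16 mg/kg. Hypothermia, righting behaviour and stereotypies scored.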"}, "[12]": {"tested_on": "hypothermia induced by apomorphine", "experiment": "Interaction with apomorphine by gastric administration", "type": "in vivo", "settings": "Mus musculus, male mice, apomorphine 16 mg/kg s.c., read-out: dose as from which the hypothermia induced by apomorphine is opposed", "protocol": "Each test product is administered gastrically to male mice, in a volume of 20 ml/kg, 0.50 h before the subcutaneous injection of 16 mg/kg of apomorphine."}, "[13]": {"tested_on": "pregnant rabbits", "experiment": "Teratogenic effects on pregnant rabbits", "type": "in vivo"}, "[14]": {"tested_on": "mice", "experiment": "Traction", "type": "in vivo", "settings": "i.p.", "protocol": "as §1\nThe test is performed on groups of 10 mice 30 minutes after the administration of CRL 41 378."}, "[15]": {"tested_on": "hypothermia, trembling and peripheral cholinergic symptoms induced by oxotremorine", "experiment": "Interaction with oxotremorine", "type": "in vivo", "settings": "mice, i.p.", "method_in_brief": "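Male mice, groups of 6, given the compound intraperitoneally in distilled water (20 ml/kg) 0.5 h before 0.5 mg/kg oxotremorine i.p. Hypothermia, trembling and peripheral cholinergic symptoms were assessed.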"}, "[16]": {"settings": "i.p., nialamide + (±)-5-HTP, male mice"}}, "note": "“Also recorded” adds a separate entry of the source.", "data": [{"smiles": "Cl.OC1(c2ccccc2)CN=CNC1", "note": "(stereo not shown) [CRL 41 382, 5-hydroxy-5-phenyl-1,4,5,6-tetrahydropyrimidine hydrochloride]", "values": [{"measurement": "results in human therapy (depression)", "setting": "[1]", "value": "excellent results"}, {"measurement": "time taken for convulsions and death / lethal effects of gallamine triiodoethylate", "setting": "[2]", "value": "practically no modification of the time taken for convulsions and death to occur"}, {"measurement": "resumption in the motor activity of mice accustomed to their enclosure", "setting": "[3]", "value": "does not cause a resumption in the motor activity of mice accustomed to their enclosure"}, {"measurement": "spontaneous motor activity", "setting": "[4]", "value": "does not modify the spontaneous motor activity of mice"}, {"measurement": "overall behavior and reactivities", "setting": "[5]; 0.5 mg/kg, 2 mg/kg and 8 mg/kg", "value": "behavior, reactivities and variations in the pupil diameter and rectal temperature which are analogous to those of the control group"}, {"measurement": "overall behavior and reactivities", "setting": "[5]; 32 mg/kg", "value": "moderate mydriasis for 1 h"}, {"measurement": "analogy with β-adrenergic stimulants in the 5-HTP procedure", "setting": "[6]; 5-HTP + MAOI", "value": "more closely resembles ritodrine or salbutamol"}, {"measurement": "head twitches", "setting": "[6]; [16]", "value": "practically no modification of the head twitches"}, {"measurement": "partial trembling", "setting": "[6]; [16]", "value": "moderate potentiation of the partial trembling"}, {"measurement": "blood flows through the femoral and vertebral arteries", "setting": "[7]; intraduodenal", "value": "decreases the blood flows through the femoral and vertebral arteries"}, {"measurement": "blood flows through the femoral and vertebral arteries", "setting": "[7]; intravenous", "value": "decreases the blood flows through the femoral and vertebral arteries"}, {"measurement": "action on hypothermia induced by reserpine", "setting": "[8]", "value": "At doses of 4 mg/kg and 16 mg/kg, CRL 41 382 opposes the hypothermia induced by reserpine; also recorded: At the highest dose used (64 mg/kg), CRL 41 382 has no effect on the hypothermia induced by reserpine; also recorded: antagonism of the hypothermia induced by reserpine no longer appears at the high dose of CRL 41 382 used"}, {"measurement": "action on ptosis induced by reserpine", "setting": "[8]", "value": "practically no modification of the ptosis induced by reserpine; also recorded: absence of antagonism of the ptosis induced by reserpine"}, {"measurement": "intergroup aggressiveness (number of fights)", "setting": "[9]", "value": "practically no modification of the number of fights"}, {"measurement": "antidepressant effects", "setting": "[10]", "value": "antidepressant effects appearing as from the lowest doses used"}, {"measurement": "peripheral anticholinergic activity", "setting": "[10]", "value": "absence of peripheral anticholinergic activity"}, {"measurement": "sedative effects", "setting": "[10]", "value": "sedative effects appearing transiently at the highest doses used (with no detectable decrease in the motor activity)"}, {"measurement": "stimulant effects", "setting": "[10]; hydrochloride", "value": "absence of any motor stimulation; also recorded: absence of stimulant effects"}, {"measurement": "minimal effective dose", "setting": "[11]; Mus musculus, ip, read-out: dose as from which the hypothermia induced by apomorphine is antagonized", "value": "≥ 1", "unit": "mg/kg"}, {"measurement": "action on righting behavior and stereotypies due to apomorphine", "setting": "[11]; i.p.", "value": "practically no modification of the righting behavior and stereotypies"}, {"measurement": "action on hypothermia induced by apomorphine", "setting": "[11]; i.p., hydrochloride", "value": "as from a dose of 1 mg/kg and especially at doses of 16 to 64 mg/kg, CRL 41 382 opposes the hypothermia induced by apomorphine; also recorded: antagonism of the hypothermia induced by apomorphine, oxotremorine and reserpine in mice"}, {"measurement": "minimal effective dose", "setting": "[12]", "value": "≥ 2", "unit": "mg/kg"}, {"measurement": "teratogenic effects", "setting": "[13]", "value": "devoid of harmful teratogenic effects on pregnant rabbits"}, {"measurement": "motor incoordination / incapacity", "setting": "[14]", "value": "does not cause major motor incapacity"}, {"measurement": "minimal effective dose", "setting": "[15]; Mus musculus, ip, read-out: dose as from which the hypothermia induced by oxotremorine is antagonized", "value": "≥ 1", "unit": "mg/kg"}, {"measurement": "action on signs of peripheral cholinergic stimulation induced by oxotremorine", "setting": "[15]; oxotremorine 0.5 mg/kg", "value": "practically no modification of the trembling or the signs of peripheral cholinergic stimulation due to oxotremorine"}, {"measurement": "action on trembling induced by oxotremorine", "setting": "[15]; oxotremorine 0.5 mg/kg", "value": "practically no modification of the trembling"}, {"measurement": "action on hypothermia induced by oxotremorine", "setting": "[15]; oxotremorine 0.5 mg/kg, hydrochloride", "value": "the antagonism is very intense at a dose of 64 mg/kg; also recorded: antagonism of the hypothermia induced by apomorphine, oxotremorine and reserpine in mice"}]}]}
